Measurements: patent US12421252B2, “Spiro (isobenzofuranazetidine) compounds for the treatment of autoimmune disease” (Hoffmann-La Roche Inc., priority 2020, dated 2025)
pIC50: −log10 of the molar value.

target: T1, human TLR8 (Homo sapiens, UniProt Q9NR97); test: HEK293-Blue-hTLR-8 cells assay; assay type: cell-based; details: HEK293-Blue-hTLR8 cells, R848 stimulation, 20 hrs, SEAP reporter; read-out: HEK/hTLR8 IC50
T1 sequence (Q9NR97 27-1041): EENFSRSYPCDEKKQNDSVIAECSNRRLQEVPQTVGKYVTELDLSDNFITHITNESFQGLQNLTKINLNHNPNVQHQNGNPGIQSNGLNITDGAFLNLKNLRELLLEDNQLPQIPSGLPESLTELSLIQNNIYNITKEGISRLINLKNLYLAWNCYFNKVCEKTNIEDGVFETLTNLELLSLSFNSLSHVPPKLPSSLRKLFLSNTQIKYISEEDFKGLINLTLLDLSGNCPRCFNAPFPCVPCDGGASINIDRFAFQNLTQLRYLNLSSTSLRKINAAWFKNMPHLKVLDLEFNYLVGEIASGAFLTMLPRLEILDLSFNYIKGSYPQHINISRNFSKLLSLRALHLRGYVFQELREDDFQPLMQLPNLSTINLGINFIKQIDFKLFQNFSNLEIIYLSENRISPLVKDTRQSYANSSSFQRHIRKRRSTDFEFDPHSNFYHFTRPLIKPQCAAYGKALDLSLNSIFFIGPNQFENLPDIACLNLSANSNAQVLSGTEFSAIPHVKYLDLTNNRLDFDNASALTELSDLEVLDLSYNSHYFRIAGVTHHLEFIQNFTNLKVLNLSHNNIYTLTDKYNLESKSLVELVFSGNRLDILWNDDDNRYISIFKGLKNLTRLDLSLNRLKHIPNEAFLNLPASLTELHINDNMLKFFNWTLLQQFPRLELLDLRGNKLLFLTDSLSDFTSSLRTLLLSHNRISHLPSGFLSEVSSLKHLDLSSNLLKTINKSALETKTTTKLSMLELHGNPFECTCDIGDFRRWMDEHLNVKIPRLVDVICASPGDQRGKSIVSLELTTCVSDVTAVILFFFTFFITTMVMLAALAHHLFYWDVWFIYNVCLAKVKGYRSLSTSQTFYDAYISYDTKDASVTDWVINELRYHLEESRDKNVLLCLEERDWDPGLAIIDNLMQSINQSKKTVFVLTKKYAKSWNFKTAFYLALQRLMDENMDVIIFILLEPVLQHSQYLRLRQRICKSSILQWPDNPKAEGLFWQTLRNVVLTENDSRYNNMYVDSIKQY
Excerpt: HEK293-Blue-hTLR-8 cells assay:
A stable HEK293-Blue-hTLR-8 cell line was purchased from InvivoGen (Cat. #: hkb-htlr8, San Diego, California, USA). These cells were originally designed for studying the stimulation of human TLR8 by monitoring the activation of NF-κB. A SEAP (secreted embryonic alkaline phosphatase) reporter gene was placed under the control of the IFN-β minimal promoter fused to five NF-κB and AP-1-binding sites. The SEAP was induced by activating NF-κB and AP-1 via stimulating HEK-Blue hTLR8 cells with TLR8 ligands. Therefore the reporter expression was declined by TLR8 antagonist under the stimulation of a ligand, such as R848, for incubation of 20 hrs. The cell culture supernatant SEAP reporter activity was determined using QUANTI-Blue™kit (Cat. #: rep-qb1, Invivogen, San Diego, Ca, USA) at a wavelength of 640 nm, a detection medium that turns purple or blue in the presence of alkaline phosphatase.
HEK293-Blue-hTLR8 cells were incubated at a density of 250,000˜450,000 cells/mL in a volume of 170 μL in a 96-well plate in Dulbecco's Modified Eagle's medium (DMEM) containing 4.5 g/L glucose, 50 U/mL penicillin, […], […], 2 mM L-glutamine, 10% (v/v) heat-inactivated fetal bovine serum with addition of 20 μL test compound in a serial dilution in the presence of final DMSO at 1% and 10 μL of 60 uM R848 in above DMEM, perform incubation under 37° C. in a CO2 incubator for 20 hrs. Then 20 μL of the supernatant from each well was incubated with 180 μL Quanti-blue substrate solution at 37° C. for 2 hrs and the absorbance was read at 620-655 nm using a spectrophotometer. The signaling pathway that TLR8 activation leads to downstream NF-κB activation has been widely accepted, and therefore similar reporter assay was modified for evaluating TLR8 antagonist.

pIC50 | SMILES
7.43 | C[C@@H]1CN(c2ccc(C#N)n3ncc(F)c23)C[C@H](CN2CC3(C2)OCc2cc(N4CC5(CNC5)C4)ccc23)O1 [Example 12, 4-[(2S,6R)-2-[[6-(2,6-diazaspiro[3.3]heptan-2-yl)spiro[1H-isobenzofuran-3,3′-azetidine]-1′-yl]methyl]-6-methyl-morpholin-4-yl]-3-fluoro-pyrazolo[1,5-a]pyridine-7-carbonitrile]
6.39 | C[C@@H]1CN(c2cc(=O)n(C)c3ncccc23)C[C@H](CN2CC3(C2)OCc2cc(N4CC(N)C4)ccc23)O1 [Example 13, 4-[(2S,6R)-2-[[6-(3-aminoazetidin-1-yl)spiro[1H-isobenzofuran-3,3′-azetidine]-1′-yl]methyl]-6-methyl-morpholin-4-yl]-1-methyl-1,8-naphthyridin-2-one]
7.89 | [2H]c1ccc2c(N3C[C@H](CN4CC5(C4)OCc4cc(N6C[C@@H](N)[C@H](OC)C6)ccc45)O[C@H](C)C3)ccc(C#N)c2n1 [Example 16, 5-[(2S,6R)-2-[[6-[(3R,4R)-3-amino-4-methoxy-pyrrolidin-1-yl]spiro[1H-isobenzofuran-3,3′-azetidine]-1′-yl]methyl]-6-methyl-morpholin-4-yl]-2-deuterio-quinoline-8-carbonitrile]
8.05 | [2H]c1ccc2c(N3C[C@H](CN4CC5(C4)OCc4cc(N6C[C@H]7NCCO[C@@H]7C6)ccc45)O[C@H](C)C3)ccc(C#N)c2n1 [Example 17, 5-[(2S,6R)-2-[[6-[(4aR,7aR)-3,4,4a,5,7,7a-hexahydro-2H-pyrrolo[3,4-b][1,4]oxazin-6-yl]spiro[1H-isobenzofuran-3,3′-azetidine]-1′-yl]methyl]-6-methyl-morpholin-4-yl]-2-deuterio-quinoline-8-carbonitrile]
8.00 | [2H]c1ccc2c(N3C[C@H](CN4CC5(C4)OCc4cc(N6CCNCC6)ccc45)O[C@H](C)C3)ccc(C#N)c2n1 [Example 18, 2-deuterio-5-[(2R,6S)-2-methyl-6-[(6-piperazin-1-ylspiro[1H-isobenzofuran-3,3′-azetidine]-1′-yl)methyl]morpholin-4-yl]quinoline-8-carbonitrile]
7.00 | C[C@@H]1CN(c2ccc(C#N)n3nccc23)C[C@H](CN2CC3(C2)OCc2cc(N4CC(N)C4)ccc23)O1 [Example 19, 4-[(2S,6R)-2-[[6-(3-aminoazetidin-1-yl)spiro[1H-isobenzofuran-3,3′-azetidine]-1′-yl]methyl]-6-methyl-morpholin-4-yl]pyrazolo[1,5-a]pyridine-7-carbonitrile]
7.52 | [2H]c1ccc2c(N3C[C@H](CN4CC5(C4)OCc4cc(N6CC(N)C6)cnc45)O[C@H](C)C3)ccc(C#N)c2n1 [Example 20, 5-[(2S,6R)-2-[[3-(3-aminoazetidin-1-yl)spiro[5H-furo[3,4-b]pyridine-7,3′-azetidine]-1′-yl]methyl]-6-methyl-morpholin-4-yl]-2-deuterio-quinoline-8-carbonitrile]
7.77 | [2H]c1ccc2c(N3C[C@H](CN4CC5(C4)OCc4cc(N6CC(C)(N)C6)cnc45)O[C@H](C)C3)ccc(C#N)c2n1 [Example 21, 5-[(2S,6R)-2-[[3-(3-amino-3-methyl-azetidin-1-yl)spiro[5H-furo[3,4-b]pyridine-7,3′-azetidine]-1′-yl]methyl]-6-methyl-morpholin-4-yl]-2-deuterio-quinoline-8-carbonitrile]
7.19 | C[C@@H]1CN(c2ccc(C#N)n3ncc(F)c23)C[C@H](CN2CC3(C2)OCc2cc(N4CC5(CN(C)C5)C4)cnc23)O1 [Example 22, 3-fluoro-4-[(2R,6S)-2-methyl-6-[[3-(6-methyl-2,6-diazaspiro[3.3]heptan-2-yl)spiro[5H-furo[3,4-b]pyridine-7,3′-azetidine]-1′-yl]methyl]morpholin-4-yl]pyrazolo[1,5-a]pyridine-7-carbonitrile]
7.23 | C[C@@H]1CN(c2ccc(C#N)n3ncc(F)c23)C[C@H](CN2CC3(C2)OCc2cc(N4CC(C)(N)C4)ncc23)O1 [Example 24, 4-[(2S,6R)-2-[[6-(3-amino-3-methyl-azetidin-1-yl)spiro[1H-furo[3,4-c]pyridine-3,3′-azetidine]-1′-yl]methyl]-6-methyl-morpholin-4-yl]-3-fluoro-pyrazolo[1,5-a]pyridine-7-carbonitrile]
6.92 | C[C@@H]1CN(c2ccc(C#N)n3nccc23)C[C@H](CN2CC3(C2)OCc2cc(N4CC(C)(N)C4)ncc23)O1 [Example 25, 4-[(2S,6R)-2-[[6-(3-amino-3-methyl-azetidin-1-yl)spiro[1H-furo[3,4-c]pyridine-3,3′-azetidine]-1′-yl]methyl]-6-methyl-morpholin-4-yl]pyrazolo[1,5-a]pyridine-7-carbonitrile]
6.63 | C[C@@H]1CN(c2ccc(C#N)n3nccc23)C[C@H](CN2CC3(C2)OCc2cc(N4CC(C)(N)C4)cnc23)O1 [Example 26, 4-[(2S,6R)-2-[[3-(3-amino-3-methyl-azetidin-1-yl)spiro[5H-furo[3,4-b]pyridine-7,3′-azetidine]-1′-yl]methyl]-6-methyl-morpholin-4-yl]pyrazolo[1,5-a]pyridine-7-carbonitrile]
7.60 | [2H]c1ccc2c(N3C[C@H](CN4CC5(C4)OCc4cc(N6C[C@H]7NCCO[C@@H]7C6)ncc45)O[C@H](C)C3)ccc(C#N)c2n1 [Example 28, 5-[(2S,6R)-2-[[6-[(4aR,7aR)-3,4,4a,5,7,7a-hexahydro-2H-pyrrolo[3,4-b][1,4]oxazin-6-yl]spiro[1H-furo[3,4-c]pyridine-3,3′-azetidine]-1′-yl]methyl]-6-methyl-morpholin-4-yl]-2-deuterio-quinoline-8-carbonitrile]
7.52 | [2H]c1ccc2c(N3C[C@H](CN4CC5(C4)OCc4cc(N6C[C@@H](N)[C@H](OC)C6)cnc45)O[C@H](C)C3)ccc(C#N)c2n1 [Example 31, 5-[(2S,6R)-2-[[3-[(3R,4R)-3-amino-4-methoxy-pyrrolidin-1-yl]spiro[5H-furo[3,4-b]pyridine-7,3′-azetidine]-1′-yl]methyl]-6-methyl-morpholin-4-yl]-2-deuterio-quinoline-8-carbonitrile]
7.66 | [2H]c1ccc2c(N3C[C@H](CN4CC5(C4)OCc4cc(N6CC(N)C6)ncc45)O[C@H](C)C3)ccc(C#N)c2n1 [Example 32, 5-[(2S,6R)-2-[[6-(3-aminoazetidin-1-yl)spiro[1H-furo[3,4-c]pyridine-3,3′-azetidine]-1′-yl]methyl]-6-methyl-morpholin-4-yl]-2-deuterio-quinoline-8-carbonitrile]
7.62 | C[C@@H]1CN(c2ccc(C#N)n3ncc(F)c23)C[C@H](CN2CC3(C2)OCc2cc(N4CC(C)(N)C4)cnc23)O1 [Example 33, 4-[(2S,6R)-2-[[3-(3-amino-3-methyl-azetidin-1-yl)spiro[5H-furo[3,4-b]pyridine-7,3′-azetidine]-1′-yl]methyl]-6-methyl-morpholin-4-yl]-3-fluoro-pyrazolo[1,5-a]pyridine-7-carbonitrile]
